For 28 molecules, IC50 results are on record in patent US11420935B2, “Bicyclic compounds” (Vivace Therapeutics, Inc., priority 2019, dated 2022).

Where two headings read alike, the source gives them in different places.

The test system of the assay is 8×TBD luciferase reporter (YAP) in HEK293T cells. Briefly: YAP Reporter Assay (8×TBD firefly luciferase reporter). The following applies: Homo sapiens, HEK-293T. The class given is cell-based. The method, then:
HEK293T cells stably transfected with 8×TBD luciferase reporter and pRLTK in 384-well plates were treated with the test compounds, starting from 3 μM (final concentration in assay plate), 1:3 dilution, and 10 points in quadruplicates. Post 24-hr incubation with compounds at 37° C. and 5% CO2, cells were lysed and 8×TBD-driven firefly luciferase and control TK-driven renilla luciferase activities were measured using Promega Dual-Luciferase Reporter Assay System.
Reagents: The reagents used for this study are: DMEM: Invitrogen #11960077, Dual-Glo Luciferase Assay System: Promega-E2980, Puromycin Dihydrochloride: Invitrogen-A1113803, 384-well plate: PerkinElmer-6007480, L-GLUTAMINE: Invitrogen-25030164, Hygromycin B: Invitrogen-10687010, and Penicillin-Streptomycin: Merk-TMS-AB2-C
Media: The media used for this assay were: Culture Medium: DMEM+1 ug/mL puromycin+200 ug/mL hygromycin (with 10% FBS+1 mM L-glutamine); and Assay Medium: DMEM (with 10% FBS+1 mM L-glutamine+1×P/S).
Cell Plating: The appropriate media was warmed at 37° C. by water bath: Culture Medium, Assay Medium, 1*D-PBS, 0.05% trypsin-EDTA. The cells were trypsinized after removing all media, then washed with 1*sterile D-PBS and then with 2 ml 0.05% trypsin-EDTA. The cells were then incubated at RT for one minute. Then 10 ml/75 cm2 flask Assay Medium was added to each flask. Using a 10 ml pipette, the cells were then gently resuspended in the media, until the clumps completely disappeared. The cells were then transferred into 50 ml centrifuge tubes and were centrifuged at 800 rpm for 5 mins. The medium was removed and the cells were resuspended with Assay Medium. An aliquot of cells was used to count the cell density (cells/ml). The cell suspension was then diluted with Assay Medium to a concentration of 6×10^4 cells/ml. 50 ul cells suspension was then plated to 384-well plate (PerkinElmer-6007480), 3×10^3 cells/well and the cells were incubated in an incubator at 37° C., 5% CO2.
Compound Treatment: In the afternoon (incubation of the plate with 3-4 hrs), the test compounds were added by Echo, starting from 3 uM (final concentration in the assay plate), 1:3 dilution, 10 points, quadruplicates. The plate was placed at 37° C., 5% CO2 incubator for 24 hrs.
Detection: The Dual-Glo Luciferase Reagent was prepared by transferring the contents of one bottle of Dual-Glo Luciferase Buffer to one bottle of Dual-Glo Luciferase Substrate to create the Dual-Glo Luciferase Reagent. Mixing was performed by inversion until the substrate was thoroughly dissolved. After mixing, the reagent was aliquoted into 15 ml tubes. In the afternoon (24 hrs post compound treatment), the DMEM+medium in the 384 well plates were aspirated by Microplate Washer.
Measuring firefly luciferase activity: 20 ul Dual-Glo Luciferase Reagent was added to the 384-well plates. The plates were protected from light to prevent interference with the assay. The plates were shaken for 1 min followed centrifuging plates at 1000 rpm for 30 seconds. After waiting at least 10 minutes, the firefly luminescence was measured by Envision.
Measuring renilla luciferase activity: 20 ul Stop-Glo Reagent was added to the 384-well plates. The plates were shaken for 1 min and then centrifuged at 1000 rpm for 30 seconds. After waiting at least 10 minutes, the renilla luminescence was measured by Envision.
Compound IC50 and maximum inhibition on the firefly luciferase and renilla luciferase activities were reported separately.
In general terms: In a reporter assay the amount or activity of a reporter protein is the signal.

Setting [1] is: HEK293T cells stably transfected with 8×TBD luciferase reporter and pRLTK, 24-hr incubation, firefly luciferase activity, read-out: Firefly Luciferase IC50.
The mark [2] stands for this setting: 24 h, read-out: Firefly Luciferase IC50 (μM).

The term IC50 denotes the concentration needed to halve the response being measured. For the molecule `C[C@H](NC(=O)c1ccc2c(Oc3ccc(C(F)(F)F)cc3)cccc2c1)c1ccccn1` [Compound 29, (S)—N-(1-(pyridin-2-yl)ethyl)-5-(4-(trifluoromethyl)phenoxy)-2-naphthamide], the concentration for half-maximal inhibition (IC50) under setting [1] is < 0.1 µM.
Regarding `COc1cc(Oc2ccc(C(F)(F)F)cc2)c2ncc(C(=O)N[C@H](C)c3ccccn3)cc2c1` [Compound 42, (R)-6-methoxy-N-(1-(pyridin-2-yl)ethyl)-8-(4-(trifluoromethyl)phenoxy)quinoline-3-carboxamide], the concentration for half-maximal inhibition (IC50) under setting [1] was 0.1 to 1 µM.
On the same count and under the same terms, to `O=C(NC(CO)c1ccccn1)c1cnc2c(Oc3ccc(C(F)(F)F)cc3)cccc2c1` (stereo not shown) [Compound 14, N-[2-hydroxy-1-(2-pyridyl)ethyl]-8-[4-(trifluoromethyl)phenoxy]quinoline-3-carboxamide] belongs < 0.1 µM; to `CC(C)NC(=O)c1ccc2c(Oc3ccc(C(F)(F)F)cc3)ccnc2c1` [Compound 67, N-isopropyl-4-(4-(trifluoromethyl)phenoxy)quinoline-7-carboxamide], 0.1 to 1 µM.
Regarding `C[C@@H](NC(=O)c1ccc2c(Oc3ccc(C(F)(F)F)cc3)cccc2c1)c1nnn(C)n1` [Compound 57, (R)—N-(1-(2-methyl-2H-tetrazol-5-yl)ethyl)-5-(4-(trifluoromethyl)phenoxy)-2-naphthamide], the IC50 under setting [1] was in the range of 0.1 to 1 µM.
Turning to `C[C@H](NC(=O)c1ccc2c(Oc3ccc(C(F)(F)F)cc3)cccc2c1)C1CCC1` [Compound 60, (S)—N-(1-cyclobutylethyl)-5-(4-(trifluoromethyl)phenoxy)-2-naphthamide], the concentration for half-maximal inhibition (IC50) under setting [1] is < 0.1 µM.
Still for that read-out and setting: next, `COC[C@H](C)NC(=O)c1cnc2c(Oc3ccc(C(F)(F)F)cc3)cc(OC)cc2c1` [Compound 45, (S)-6-methoxy-N-(1-methoxypropan-2-yl)-8-(4-(trifluoromethyl)phenoxy)quinoline-3-carboxamide]: < 0.1 µM.
For `C#C[C@H](C)NC(=O)c1ccc2c(Oc3ccc(C(F)(F)F)cc3)cccc2c1` [Compound 62, (S)—N-(but-3-yn-2-yl)-5-(4-(trifluoromethyl)phenoxy)-2-naphthamide], the IC50 under setting [1] is < 0.1 µM.
On the same count and under the same terms, to `CCNCC[C@@H](C)NC(=O)c1ccc2c(Oc3ccc(C(F)(F)F)cc3)cccc2c1` [Compound 146, (R)-N-(4-(ethylamino)butan-2-yl)-5-(4-(trifluoromethyl)phenoxy)-2-naphthamide] belongs < 0.1 µM; to `C[C@H](CCNCCF)NC(=O)c1ccc2c(Oc3ccc(C(F)(F)F)cc3)cccc2c1` [Compound 148, (R)-N-(4-((2-fluoroethyl)amino)butan-2-yl)-5-(4-(trifluoromethyl)phenoxy)-2-naphthamide], < 0.1 µM.
The same measure, in the same setting: next, `C[C@@H](NC(=O)c1ccc2c(Oc3ccc(C(F)(F)F)cc3)cccc2c1)c1cccc2cn[nH]c12` [Compound 87, N-[(1R)-1-(1H-indazol-7-yl)ethyl]-5-[4-(trifluoromethyl)phenoxy]naphthalene-2-carboxamide]: < 0.1 µM; `C[C@H](NC(=O)c1ccc2c(Oc3ccc(C(F)(F)F)cc3)cccc2c1)C1CN(CCF)C1` [Compound 129, (S)—N-(1-(1-(2-fluoroethyl)azetidin-3-yl)ethyl)-5-(4-(trifluoromethyl)phenoxy)-2-naphthamide]: 1 to 3 µM; `CC(=O)N1CC([C@H](C)NC(=O)c2ccc3c(Oc4ccc(C(F)(F)F)cc4)cccc3c2)C1` [Compound 100, (S)—N-(1-(1-acetylazetidin-3-yl)ethyl)-5-(4-(trifluoromethyl)phenoxy)-2-naphthamide]: 0.1 to 1 µM.
Consider `C[C@H](NC(=O)c1ccc2c(Oc3ccc(C(F)(F)F)cc3)cccc2c1)C1CN(CCO)C1` [Compound 128, (S)—N-(1-(1-(2-hydroxyethyl)azetidin-3-yl)ethyl)-5-(4-(trifluoromethyl)phenoxy)-2-naphthamide], for which the concentration for half-maximal inhibition (IC50) under setting [2] fell in the range of 0.1 to 1 µM.
`CC(=O)N1CC([C@@H](C)NC(=O)c2ccc3c(Oc4ccc(C(F)(F)F)cc4)cccc3c2)C1` [Compound 101, (R)—N-(1-(1-acetylazetidin-3-yl)ethyl)-5-(4-(trifluoromethyl)phenoxy)-2-naphthamide]: the IC50 under setting [1] is 0.1 to 1 µM.
The same measure, in the same setting: to `C[C@H](NC(=O)c1ccc2c(Oc3ccc(C(F)(F)F)cc3)cccc2c1)c1c[nH]cn1` [Compound 49, (S)—N-(1-(1H-imidazol-4-yl)ethyl)-5-(4-(trifluoromethyl)phenoxy)-2-naphthamide] belongs < 0.1 µM.
Turning to `N#CCNC(=O)c1ccc2c(Oc3ccc(C(F)(F)F)cc3)cccc2c1` [Compound 22, N-(cyanomethyl)-5-(4-(trifluoromethyl)phenoxy)-2-naphthamid], the IC50 under setting [2] was < 0.1 µM.
With `CCN1CCC([C@@H](C)NC(=O)c2ccc3c(Oc4ccc(C(F)(F)F)cc4)cccc3c2)CC1` [Compound 155, (R)-N-(1-(1-ethylpiperidin-4-yl)ethyl)-5-(4-(trifluoromethyl)phenoxy)-2-naphthamide], the IC50 under setting [1] lay in the range of 0.1 to 1 µM.
Same read-out and setting: next, `O=C(NC(CO)c1ccccn1)c1ccc2c(Oc3ccc(C(F)(F)F)cc3)cccc2c1` (stereo not shown) [Compound 25, N-(2-hydroxy-1-(pyridin-2-yl)ethyl)-5-(4-(trifluoromethyl)phenoxy)-2-naphthamide]: < 0.1 µM.
Same read-out and setting: to `C[C@H](NC(=O)c1ccc2c(Oc3ccc(C(F)(F)F)cc3)cccc2c1)C1CN(CC(F)F)C1` [Compound 134, (S)—N-(1-(1-(2,2-difluoroethyl)azetidin-3-yl)ethyl)-5-(4-(trifluoromethyl)phenoxy)-2-naphthamide] belongs 1 to 3 µM; to `CC(C)N1CCC([C@@H](C)NC(=O)c2ccc3c(Oc4ccc(C(F)(F)F)cc4)cccc3c2)CC1` [Compound 156, (R)-N-(1-(1-isopropylpiperidin-4-yl)ethyl)-5-(4-(trifluoromethyl)phenoxy)-2-naphthamide], 0.1 to 1 µM.
On the same count and under the same terms, to `C[C@@H](NC(=O)c1ccc2c(Oc3ccc(C(F)(F)F)cc3)cccc2c1)C1(F)CNC1` [Compound 152, (R)-N-(1-(3-fluoroazetidin-3-yl)ethyl)-5-(4-(trifluoromethyl)phenoxy)-2-naphthamide] belongs 0.1 to 1 µM; to `NS(=O)(=O)c1ccc2c(Oc3ccc(C(F)(F)F)cc3)cccc2c1` [Compound 117, 5-(4-(trifluoromethyl)phenoxy)naphthalene-2-sulfonamide], < 0.1 µM.
Consider `O=C(N[C@H](CO)c1ccccn1)c1ccc2c(Oc3ccc(C(F)(F)F)cc3)cccc2c1` [Compound 119, (S)—N-(2-hydroxy-1-(pyridin-2-yl)ethyl)-5-(4-(trifluoromethyl)phenoxy)-2-naphthamide], for which the IC50 under setting [1] is < 0.1 µM.
For `C[C@H](NC(=O)c1cc2cccc(Oc3ccc(C(F)(F)F)cc3)c2s1)c1ccccn1` [Compound 97, (S)—N-(1-(pyridin-2-yl)ethyl)-7-(4-(trifluoromethyl)phenoxy)benzothiophene-2-carboxamide], the IC50 under setting [1] was < 0.1 µM.
Still for that read-out and setting: to `CC(C)NC(=O)c1cc2cccc(Oc3ccc(C(F)(F)F)cc3)c2s1` [Compound 32, N-isopropyl-7-(4-(trifluoromethyl)phenoxy)benzo[b]thiophene-2-carboxamide] belongs < 0.1 µM.
Still for that read-out and setting: next, `C[C@@H](NC(=O)c1ccc2c(Oc3ccc(C(F)(F)F)cc3)cccc2c1)c1cccc(N(C)C)n1` [Compound 77, (R)—N-(1-(6-(dimethylamino)pyridin-2-yl)ethyl)-5-(4-(trifluoromethyl)phenoxy)-2-naphthamide]: < 0.1 µM; `COC[C@@H](C)NC(=O)c1ccc2c(Oc3ccc(C(F)(F)F)cc3)cccc2c1` [Compound 26, (R)—N-(1-methoxypropan-2-yl)-5-(4-(trifluoromethyl)phenoxy)-2-naphthamide]: < 0.1 µM.
